Test results taken from publication PMC12670779, “Targeting the CXCL12/CXCR4 pathway by an optimized derivative or EPI-X4 preserves chondrocyte function and offers a novel therapeutic approach in rheumatic diseases” (Arthritis Research & Therapy, 2025).
Where a name gives a salt, the structure may show the parent alone. Read-outs that look alike come from different tables or passages of the source. Residues, ends and D or L forms follow the SMILES beside them.

Columns and labels:
CXCR4 = biological target: T1, CXCR4 (Homo sapiens, UniProt P61073); assay: Inhibition of CXCL12-induced β-arrestin-2 recruitment at CXCR4 (NanoBiT, transfected HEK293T cells); format: cell-based
T1 construct: SmBiT (NanoBiT fragment); expressed in transfected cells; host or cells: HEK293T
Protocol: Fifteen thousand HEK293T cells were seeded in 92 µL complete DMEM medium (supplemented with 10% FCS, 1% L-Glutamine and 1% penicillin/streptomycin) and allowed to adhere overnight. On the next day cells were transfected with plasmids containing a β-arrestin-2 coupled to a SmBiT and a CXCR4 or ACKR3 construct coupled to the LgBiT of the NanoBiT protein–protein-interaction assay system. […] For the transfection, LT1 transfection reagent was used according to manufacturer’s instructions. The next day, medium was changed to 100µL pre-warmed OptiMEM before luminescence measurements were initiated.
For antagonism measurements, cells were first supplied with compounds and 10 min later with 30 nM CXCL12. Subsequently, luminescence signal was measured over 1 h. Baseline luminescence of each well in the first 10 min was averaged and used to calculate the signal-to-noise ratio for all subsequent time points of the same well. The signal-to-noise ratios were further recalculated as a ratio to the average of buffer-only treated wells. These values were plotted over time and areas under curve (AUCs) were determined for each well. Data were normalized to buffer-only wells as 0% and CXCL12-only treated wells as 100%.

ACKR3 [1] = biological target: T2, ACKR3 (Homo sapiens, UniProt P25106); assay: β-arrestin-2 recruitment at ACKR3, agonism (NanoBiT, transfected HEK293T cells); format: cell-based; parameters: SmBiT (NanoBiT fragment); expressed in transfected cells; host or cells: HEK293T; conditions: compound alone
Protocol: Fifteen thousand HEK293T cells were seeded in 92 µL complete DMEM medium (supplemented with 10% FCS, 1% L-Glutamine and 1% penicillin/streptomycin) and allowed to adhere overnight. On the next day cells were transfected with plasmids containing a β-arrestin-2 coupled to a SmBiT and a CXCR4 or ACKR3 construct coupled to the LgBiT of the NanoBiT protein–protein-interaction assay system. The SmBiT was coupled to the intracellular C-term of the receptor, while the LgBiT was coupled to the N-term of the ß-arrestin. For the transfection, LT1 transfection reagent was used according to manufacturer’s instructions. The next day, medium was changed to 100µL pre-warmed OptiMEM before luminescence measurements were initiated.
For agonism measurements, single compounds were added to the wells after 10 min of background measurement. Baseline correction was performed in the same manner and resulting AUCs were compared to the buffer-only control wells to calculate n-fold ß-arrestin induction.

mice [2] = conditions: cited from earlier work
Source text: In case of CXCR4, there is evidence that binding of CXCL12 promotes a hypertrophic phenotype in chondrocytes, characterized by enhanced catabolic enzyme production (e.g., matrix metalloproteinase 13 (MMP-13)) and collagen type X expression. […] It should also be considered that the pathophysiological mechanisms are not mediated by chondrocytes alone.

[3] = tested on: human articular chondrocytes (hAC); assay: Osteogenic differentiation of hAC, Alizarin Red S staining (calcium deposition); format: cell-based; conditions: 21 d osteogenic differentiation medium; 200 ng/mL CXCL12; inhibitors 1 µM; n = 5
Protocol: (§1) hAC were seeded in passage 2 at a density of 1 × 10^4 cells/cm^2 and osteogenic differentiation was induced on the next day by addition of osteogenic differentiation medium [ODM: DMEM, 10% FBS, 1 g/L glucose, 1% L-glutamine, 1% penicillin/streptomycin, 10 mM β-glycerophosphate disodium salt hydrate (Sigma-Aldrich), 0.1 µM dexamethasone, 200 µM 2-phospho-L-ascorbic acid trisodium salt]. […] Medium was changed twice a week and additives were refreshed every time. Cells cultured in BM served as negative control.
Evaluation of osteogenic differentiation was carried out by means of an Alizarin Red S staining which indicates calcium deposition. At first, cells were incubated in 70% ethanol for 1 h and subsequently stained with a 40 mM Alizarin Red S solution. For quantification, the cells were washed carefully and bound Alizarin Red S was dissolved in 10% Cetylpyridinium (Sigma-Aldrich). With a multimode microplate reader Infinite M200 Pro (Tecan Austria GmbH, Crailsheim, Germany), absorbance at 652 nm was measured and the amount of Alizarin Red S was calculated based on a standard calibration curve.

MSCs = conditions: AMD3100 400 µM, cited from earlier work
ACKR3 [4] = biological target: T2, ACKR3; conditions: cited from earlier work
Source text: (§2) In case of CXCR4, there is evidence that binding of CXCL12 promotes a hypertrophic phenotype in chondrocytes, characterized by enhanced catabolic enzyme production (e.g., matrix metalloproteinase 13 (MMP-13)) and collagen type X expression.

mice [5] = conditions: cited from earlier work; remark: listed apart in the source
Source text: as §2

[6] = tested on: Dunkin Hartley guinea pigs; conditions: cited from earlier work
Source text: as §2

mouse = conditions: both inflammatory mouse models; cited from earlier work
Source text: To date, three CXCR4 antagonist have been approved for clinical applications. However, these ligands are only approved for autologous stem cell transplantation in Non-Hodgkin’s lymphoma and the treatment of the WHIM syndrome, a rare congenital immunodeficiency disorder. One decade ago, another promising CXCR4 inhibitor was identified – the Endogenous Peptide Inhibitor of CXCR4, termed EPI-X4 [33]. EPI-X4 is a 16 amino acids long endogenous fragment of human serum albumin and specifically binds to CXCR4 thereby acting as an antagonist and inverse agonist. Using rational dru ...

[7] = tested on: human articular chondrocytes (hAC); assay: Gene expression during osteogenic differentiation of hAC (qRT-PCR); format: cell-based; conditions: 14 d osteogenic differentiation; 200 ng/mL CXCL12; inhibitors 1 µM; n = 4
Protocol: as §1

[8] = cited from earlier work
[9] = tested on: human articular chondrocytes (hAC); assay: Ki-67 immunocytochemistry (proliferation); format: cell-based; conditions: 48 h; 200 ng/mL CXCL12; simultaneous addition of inhibitors 1 µM; n = 4
Protocol: On the next day, an Alexa Fluor 488 labled anti-rabbit antibody (1:200, ab150077, Abcam) was added and nuclei were stained with DAPI (0.25 µg/mL). The fluorescence microscope Axioskop 2 mot plus was used for imaging and Ki-67 appeared in green and nuclei in blue.

[10] = tested on: human articular chondrocytes (hAC); assay: Gene expression of hypertrophy markers in isolated hAC (qRT-PCR); format: cell-based; conditions: 48 h; 200 ng/mL CXCL12; n = 4
Protocol: (§3) During experiments, hAC were cultured in medium with reduced FBS content (5%) and stimulated with 200 ng/mL CXCL12, 1 µM compounds and/or 10 ng/mL IL-1β. Stress-induced premature senescence (SIPS) was induced by Doxorubicin (Doxo) (Selleckchem) treatment. The senescent phenotype was confirmed as previously described. In brief, hAC were exposed to 0.1 µM Doxo for 7 days. Doxo was refreshed three times per week.

[11] = tested on: human articular chondrocytes (hAC); assay: Chondrogenic re-differentiation of hAC in pellet culture, histological scoring; format: cell-based; conditions: 28 d in chondrogenic differentiation medium; 200 ng/mL CXCL12; inhibitors 1 µM; n ≥ 4
Protocol: Pellet cultures were generated containing 3.5 × 10^5 hAC in passage 3 and were cultured in chondrogenic differentiation medium [SFM: DMEM, 4.5 g/L glucose, 1% L-glutamine, 1% penicillin/streptomycin, 200 μM 2-phospho-L-ascorbic acid trisodium salt, 0.1% Insulin-Transferrin-Selenium, 0.1 µM dexamethasone (Sigma-Aldrich), 40 µg/mL L-proline (Sigma-Aldrich), 1% pyruvate, 10 ng/mL rhTGF-β3 (PeproTech), 10 ng/mL rhBMP6 (PeproTech)]. The medium was changed twice per week and 200 ng/mL CXCL12 and 1 µM compounds was added. After 28 days, resulting cell pellets were embedded in paraffin and prepared for histology (Collagen type II-IHC and Safranin O staining). For evaluation, a previously established scoring system was used (supplementary Table S2).

[12] = tested on: human articular chondrocytes (hAC); assay: Live cell imaging of undirected migration; format: cell-based; conditions: 200 ng/mL CXCL12; inhibitors 1 µM; monitored for 10 h (method), legend says 48 h; normalized to untreated control; n = 5
Protocol: Subsequently, cell localization was monitored for 10 h with a Live Cell Imaging Microscope Leica DMI6000 I (Leica Microsystems, Wetzlar, Germany). Images were acquired every 30 min and at least 6 cells of each well were manually tracked with ImageJ 2.9.0. The average migration distance was calculated and values were normalized to the untreated control.

[13] = tested on: human articular chondrocytes (hAC); assay: alamarBlue cytotoxicity/cell proliferation assay; format: cell-based; conditions: 24 h; 200 ng/mL CXCL12; CXCR4 inhibitors 1 µM in combination with CXCL12 or alone; n = 5
Protocol: as §3
To quantitatively assess the cell proliferation and cytotoxicity of hAC, an alamarBlue (BioRad, Munich, Germany) assay was used. The assay is based on the conversion of non-fluorescent resazurin to fluorescent resorufin during cellular respiration. The fluorescence intensity of resorufin was measured at 550 nm excitation and 590 nm emission with a multimode microplate reader Infinite M200 Pro (Tecan, Crailsheim, Germany). Unstimulated cells served as baseline (100% cell viability).

human cartilage explants = assay: Live/dead viability/cytotoxicity assay in cartilage explants; format: cell-based; conditions: day 7; 200 ng/mL CXCL12 with or without CXCR4 inhibitors 1 µM; n = 5
Protocol: A Live/Dead Viability/Cytotoxicity Assay (Live Technologies) was applied to determine the number of living and dead cells in cartilage explants. A small tissue section of 0.5 mm thickness was extracted from an unfixed cartilage explant and incubated for 40 min in a staining solution (1 µM calcein and 2 µM ethidium homodimer-1). Microscopic analysis was carried out with a Axioskop 2 mot plus microscope and using a z-stack model (AxioVision software).

[14] = tested on: human articular chondrocytes (hAC); assay: Wound healing assay; format: cell-based; conditions: 24 h; 200 ng/mL CXCL12; inhibitors 1 µM; 5% FBS; n ≥ 5
Protocol: At first, a 2 Well Culture-Insert (Ibidi, Gräfelfing, Germany) was attached on a well of a 24 well plate. In each well of the insert, 70 µL cell suspension containing 20,000 hAC (passage 1 or 2) was added and incubated overnight. Next, medium with reduced FBS content (5%) was added and the insert carefully removed. […] Images were captured (Canon EOS 700D camera (Canon, Krefeld, Germany)) after 0 h and 24 h. Cells migrated into the gap were manually counted as previously described.

T2 sequence (P25106 whole entry, the tested form may be a part): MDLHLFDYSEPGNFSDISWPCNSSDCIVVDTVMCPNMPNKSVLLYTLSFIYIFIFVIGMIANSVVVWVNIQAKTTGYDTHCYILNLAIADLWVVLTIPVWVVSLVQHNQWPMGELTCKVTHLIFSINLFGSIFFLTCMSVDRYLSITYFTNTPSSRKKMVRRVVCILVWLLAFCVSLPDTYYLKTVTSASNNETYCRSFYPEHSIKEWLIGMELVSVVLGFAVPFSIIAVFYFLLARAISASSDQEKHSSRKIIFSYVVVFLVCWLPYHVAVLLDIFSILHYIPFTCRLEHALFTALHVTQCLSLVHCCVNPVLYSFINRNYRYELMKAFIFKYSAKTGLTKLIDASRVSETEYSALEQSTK
T2 sequence (P32121 whole entry partner, the tested form may be a part): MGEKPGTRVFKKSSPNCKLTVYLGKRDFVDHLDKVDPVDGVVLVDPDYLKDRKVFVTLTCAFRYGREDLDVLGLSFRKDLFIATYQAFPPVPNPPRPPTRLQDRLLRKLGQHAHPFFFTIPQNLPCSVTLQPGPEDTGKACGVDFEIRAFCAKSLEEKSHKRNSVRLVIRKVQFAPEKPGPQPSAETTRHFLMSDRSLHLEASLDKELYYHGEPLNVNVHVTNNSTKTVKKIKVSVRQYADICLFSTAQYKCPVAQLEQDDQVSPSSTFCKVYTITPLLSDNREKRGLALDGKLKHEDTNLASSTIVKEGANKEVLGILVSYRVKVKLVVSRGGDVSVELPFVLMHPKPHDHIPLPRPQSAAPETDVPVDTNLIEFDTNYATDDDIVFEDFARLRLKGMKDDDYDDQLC
T1 sequence (P61073 whole entry, the tested form may be a part): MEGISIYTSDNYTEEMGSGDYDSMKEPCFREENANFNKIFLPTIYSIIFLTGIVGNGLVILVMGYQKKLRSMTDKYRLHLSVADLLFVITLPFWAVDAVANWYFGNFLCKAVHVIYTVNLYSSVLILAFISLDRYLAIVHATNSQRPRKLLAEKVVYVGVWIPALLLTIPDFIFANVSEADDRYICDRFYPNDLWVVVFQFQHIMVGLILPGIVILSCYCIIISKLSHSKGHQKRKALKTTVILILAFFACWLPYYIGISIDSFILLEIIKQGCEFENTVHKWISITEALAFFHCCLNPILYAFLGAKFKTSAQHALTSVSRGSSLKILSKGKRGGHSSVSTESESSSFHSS

CC(C)C[C@H](NC(=O)[C@@H](NC(=O)[C@@H]1CCCN1C(=O)[C@@H](NC(=O)[C@H](CO)NC(=O)[C@@H](NC(=O)[C@H](CCC(N)=O)NC(=O)[C@@H]1CCCN1C(=O)[C@@H](NC(=O)[C@H](CCCCN)NC(=O)[C@H](CCCCN)NC(=O)[C@@H](NC(=O)[C@H](Cc1ccc(O)cc1)NC(=O)[C@H](CCCNC(=N)N)NC(=O)[C@@H](NC(=O)[C@@H](N)CC(C)C)C(C)C)[C@@H](C)O)C(C)C)C(C)C)[C@@H](C)O)[C@@H](C)O)C(=O)O [EPI-X4] (H-LVRYTKKVPQVSTPTL-OH)
IC50 (CXCR4): 10.2 nM

CC[C@H](C)[C@H](N)C(=O)N[C@@H](CC(C)C)C(=O)N[C@@H](CCCNC(=N)N)C(=O)N[C@@H](Cc1c[nH]c2ccccc12)C(=O)N[C@@H](CO)C(=O)N[C@@H](CCCNC(=N)N)C(=O)N[C@@H](CCCCN)C(=O)N[C@@H](CC(C)C)C(=O)N1CCC[C@H]1C(=O)N[C@@H](CS)C(=O)N[C@H](C(=O)N[C@@H](CO)C(=O)O)C(C)C [EPI-X4 JM#21]
IC50 (CXCR4; read-out: IC50, inhibition of CXCL12-induced recruitment of β-arrestin-2 at CXCR4): 164 nM | EC50 (ACKR3 [1]; AUC vs buffer-only control): 7800 nM

c1cc(CN2CCCNCCNCCCNCC2)ccc1CN1CCCNCCNCCCNCC1 [AMD3100, AMD3100 octahydrochloride hydrate]
surgically-induced OA (mice [2]; mice): attenuate | severity of surgically-induced OA on inhibition in subchondral bone (mice [2]; mouse model, delivery to subchondral bone via an osmotic pump): reduced the severity | Ca2+ deposition / matrix calcification (Alizarin Red S) [3]: could not find any influence | matrix calcification during in vitro osteogenesis of MSCs (MSCs): not affected | gene expression of osteogenic markers during in vitro osteogenesis of MSCs (MSCs; to a limited extend): impaired | activity at ACKR3 (ACKR3 [4]): weak allosteric agonist | collagen-induced arthritis (CIA) (mice [5]): attenuate | spontaneous OA development [6]: attenuate | activity in mouse models of atopic dermatitis and eosinophilic asthma (mouse): only poorly active | agonistic activity to recruit β-arrestin-2 at ACKR3 (ACKR3 [1]; concentrations up to 10 µM): weak agonistic activity | expression of the hypertrophic marker COL10A1 during osteogenic differentiation [7]: significantly reduced | gene expression of osteogenic markers (ALPL, RUNX2, SP7, IBSP) [7]: could not find any influence | clinical peak plasma concentrations [8]: ~ 1 μM | proliferation (Ki-67-positive cells) [9]: not altered

CXCL12: C-X-C motif chemokine 12, ligand of CXCR4 and ACKR3; used as stimulus at 200 ng/mL
Ca2+ deposition / matrix calcification (Alizarin Red S) [3]: could not find any influence | gene expression of COL10A1 in isolated chondrocytes [10]: did not significantly induce | gene expression of MMP13 in isolated chondrocytes [10]: did not significantly induce | neocartilage formation, histologic assessment (score) of pellet culture [11]: did not reveal any significant effect | migration distance of isolated hAC (live cell tracking) [12]: increased | cytotoxic effects in isolated chondrocytes (alamarBlue, relative fluorescence intensity) [13]: did not observe any cytotoxic effects | cytotoxic effects in native cartilage tissue (live/dead assay) (human cartilage explants): did not observe any cytotoxic effects | expression of the hypertrophic marker COL10A1 during osteogenic differentiation [7]: tended to increase | gene expression of osteogenic markers (ALPL, RUNX2, SP7, IBSP) [7]: could not find any influence | number of migrated hAC in wound healing assay [14]: significantly increased | proliferation (Ki-67-positive cells) [9]: not altered
